How the values were obtained:
[1] = target: T1, TRβ (TR-receptor hybrid with yeast Gal4 DBD) (Homo sapiens, UniProt P10828); assay: Thyroid-hormone reporter-gene assay, TRβ; assay type: cell-based; settings: for EC50: HEK293-derived reporter cells, firefly luciferase, 24 hr incubation; for T3-SI, selectivity index EC50 (TRα)/EC50 (TRβ): calculated from the reporter-gene EC50 values
T1 construct: expressed in transfected cells; host or cells: HEK293
T1 sequence (P10828 217-461 limits assumed): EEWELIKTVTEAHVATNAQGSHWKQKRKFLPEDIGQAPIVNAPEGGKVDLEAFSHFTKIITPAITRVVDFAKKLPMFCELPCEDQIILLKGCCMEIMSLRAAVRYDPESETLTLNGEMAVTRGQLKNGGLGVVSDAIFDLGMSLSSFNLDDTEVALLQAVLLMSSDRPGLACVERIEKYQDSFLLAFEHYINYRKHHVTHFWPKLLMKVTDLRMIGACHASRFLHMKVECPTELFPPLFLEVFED
Method: (§1) Compounds were tested for thyroid-hormone receptor activity using TR reporter-gene assays. Reporter cells used in the assays express a TR-receptor hybrid (either TRα or TRβ) in which the native N-terminal DNA binding domain (DBD) has been replaced with that of the yeast Gal4 DBD. The reporter gene, firefly luciferase, is functionally linked to the Gal4 upstream activation sequence (UAS). Both cell lines were derived from human embryonic kidney (HEK293). • Step 1: A suspension of reporter cells was prepared in cell recovery medium containing 10% charcoal-stripped FBS, and dispensed into assay plates. […] These intermediate stocks were subsequently diluted directly into compound screening medium containing 10% charcoal-stripped FBS to generate “2×-concentration” treatment media (containing 0.2, 0.4 or 0.8% DMSO). • Step 3: At the end of the pre-incubation period, culture media were discarded from the assay plates, and all wells received 100 μl of compound screening medium. 100 μl of each of the previously prepared “2×-concentration” treatment media were dispensed into duplicate assay wells, thereby achieving the desired final treatment concentrations. The final concentration of DMSO in all assay wells was 0.1, 0.2 or 0.4%. Assay plates were incubated for 24 hr in a cell culture incubator (37° C./5% CO2/85% humidity). • Step 4: At the 24 h assay endpoint, treatment media were discarded and 100 μl/well of luciferase detection reagent was added. Relative luminometer units (RLUs) were quantified from each assay well.

[2] = target: T2, TRα (TR-receptor hybrid with yeast Gal4 DBD) (Homo sapiens, UniProt P10827); assay: Thyroid-hormone reporter-gene assay, TRα; assay type: cell-based; settings: HEK293-derived reporter cells, firefly luciferase, 24 hr incubation
T2 construct: expressed in transfected cells; host or cells: HEK293
T2 sequence (P10827 1-410 isoform P10827-2): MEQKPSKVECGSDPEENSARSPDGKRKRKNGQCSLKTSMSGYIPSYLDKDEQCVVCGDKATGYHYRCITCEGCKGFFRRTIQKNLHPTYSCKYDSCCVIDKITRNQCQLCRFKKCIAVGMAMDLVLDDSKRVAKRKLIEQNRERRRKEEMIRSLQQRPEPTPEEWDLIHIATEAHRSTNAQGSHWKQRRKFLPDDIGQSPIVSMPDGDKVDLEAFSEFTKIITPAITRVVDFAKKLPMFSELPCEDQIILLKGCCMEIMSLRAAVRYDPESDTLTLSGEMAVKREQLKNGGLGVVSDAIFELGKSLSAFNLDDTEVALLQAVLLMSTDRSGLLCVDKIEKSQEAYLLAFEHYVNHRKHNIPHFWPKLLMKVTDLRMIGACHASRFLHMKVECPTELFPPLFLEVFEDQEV
Method: as §1

Compound | EC50 [1] [nM] | T3-SI, selectivity index EC50 (TRα)/EC50 (TRβ) [1] | EC50 [2] [nM]
CC(C)c1cc(Cc2c(Cl)cc(-n3nc(C#N)c(O)nc3=O)cc2Cl)ccc1O [Compound 1, 2-(3,5-dichloro-4-(4-hydroxy-3-isopropylbenzyl)phenyl)-5-hydroxy-3-oxo-2,3-dihydro-1,2,4-triazine-6-carbonitrile] | 10 to 100 | +++ (T3-SI>30×) | 100 to 1000
N#Cc1nn(-c2cc(Cl)c(Cc3ccc(O)c(-c4cccc(OC(F)F)c4)c3)c(Cl)c2)c(=O)nc1O [Compound 3, 2-(3,5-dichloro-4-((3′-(difluoromethoxy)-6-hydroxy-[1,1′-biphenyl]-3-yl)methyl)phenyl)-5-hydroxy-3-oxo-2,3-dihydro-1,2,4-triazine-6-carbonitrile] | 100 to 1000 | +++ (T3-SI>30×) | > 1000
N#Cc1nn(-c2cc(Cl)c(Cc3ccc(O)c(Cc4ccc(F)cc4)c3)c(Cl)c2)c(=O)nc1O [Compound 4, 2-(3,5-dichloro-4-(3-(4-fluorobenzyl)-4-hydroxybenzyl)phenyl)-5-hydroxy-3-oxo-2,3-dihydro-1,2,4-triazine-6-carbonitrile] | 100 to 1000 | ++ (3×<T3-SI≤30×) | > 1000
CC(C)c1cc(Cc2c(Cl)cc(-n3nc(C#N)c(O)nc3=O)cc2C(C)C)ccc1O [Compound 5, 2-(3-chloro-4-(4-hydroxy-3-isopropylbenzyl)-5-isopropylphenyl)-5-hydroxy-3-oxo-2,3-dihydro-1,2,4-triazine-6-carbonitrile] | < 10 | ++ (3×<T3-SI≤30×) | 10 to 100
CC(C)c1cc(Cc2c(Cl)cc(-n3nc(C#N)c(O)nc3=O)c(F)c2Cl)ccc1O [Compound 6, 2-(3,5-dichloro-2-fluoro-4-(4-hydroxy-3-isopropylbenzyl)phenyl)-5-hydroxy-3-oxo-2,3-dihydro-1,2,4-triazine-6-carbonitrile] | 100 to 1000 | ++ (3×<T3-SI≤30×) | 100 to 1000
CC(C)c1cc(Cc2c(Cl)cc(-c3cc(O)no3)cc2Cl)ccc1O [Compound 9, 5-(3,5-dichloro-4-(4-hydroxy-3-isopropylbenzyl)phenyl)isoxazol-3-ol] | 10 to 100 | ++ (3×<T3-SI≤30×) | 100 to 1000
O=c1nc(O)cnn1-c1cc(Cl)c(Cc2ccc(O)c(-c3cccc(OC(F)F)c3)c2)c(Cl)c1 [Compound 10, 2-(3,5-dichloro-4-((3′-(difluoromethoxy)-6-hydroxy-[1,1′-biphenyl]-3-yl)methyl)phenyl)-5-hydroxy-1,2,4-triazin-3(2H)-one] | < 10 | ++ (3×<T3-SI≤30×) | < 10

Other lines, results leading:

EC50 [1] [nM] | T3-SI, selectivity index EC50 (TRα)/EC50 (TRβ) [1] | EC50 [2] [nM] | Compound
10 to 100 | ++ (3×<T3-SI≤30×) | 10 to 100 | CC(C)c1c(O)ccc(Cc2c(Cl)cc(-n3nc(C#N)c(O)nc3=O)cc2Cl)c1F [Compound 2, 2-(3,5-dichloro-4-(2-fluoro-4-hydroxy-3-isopropylbenzyl)phenyl)-5-hydroxy-3-oxo-2,3-dihydro-1,2,4-triazine-6-carbonitrile]
100 to 1000 | ++ (3×<T3-SI≤30×) | > 1000 | CC(C)c1c(O)ccc(Cc2c(Cl)cc(-c3cc(F)c(O)c(F)c3)cc2Cl)c1F [Compound 7, 3′,5′-dichloro-3,5-difluoro-4′-(2-fluoro-4-hydroxy-3-isopropylbenzyl)-[1,1′-biphenyl]-4-ol]
> 1000 | – | > 1000 | CC(C)c1c(O)ccc(Cc2c(Cl)cc(-c3ccc(F)c(O)c3F)cc2Cl)c1F [Compound 8, 3′,5′-dichloro-2,4-difluoro-4′-(2-fluoro-4-hydroxy-3-isopropylbenzyl)-[1,1′-biphenyl]-3-ol]
